Structures are written as SMILES.

The test relates to Cav1.2/1.3 channels. In kind it is cell-based, rat.

Regarding `[Cl][Cd][Cl]` [Cd^2+, CdCl2], the “block of current amplitude” value stood at 98 ± 0.8%.
